Calls of active or inactive are those of the source. How the calls were made is not given here.

This series concerns CCRIS mutagenicity, Ames/micronucleus/aberration tests. The series is described as follows: CCRIS mutagenicity studies.
Setting [1] is: Test System: AMES SALMONELLA TYPHIMURIUM, Strain/Indicator: TA98, Metabolic Activation: NONE, Method: STANDARD PLATE.
The mark [2] stands for this setting: Test System: AMES SALMONELLA TYPHIMURIUM, Strain/Indicator: TA98, Metabolic Activation: RAT, LIVER, S-9, AROCLOR 1254, Method: STANDARD PLATE.
[3] abbreviates: Test System: AMES SALMONELLA TYPHIMURIUM, Strain/Indicator: TA100, Metabolic Activation: NONE, Method: STANDARD PLATE.
Setting [4] is: Test System: AMES SALMONELLA TYPHIMURIUM, Strain/Indicator: TA100, Metabolic Activation: RAT, LIVER, S-9, AROCLOR 1254, Method: STANDARD PLATE.
Setting [5] is: Test System: AMES SALMONELLA TYPHIMURIUM, Strain/Indicator: TA97, Metabolic Activation: NONE, Method: STANDARD PLATE.
Setting [6] is: Test System: AMES SALMONELLA TYPHIMURIUM, Strain/Indicator: TA97, Metabolic Activation: RAT, LIVER, S-9, AROCLOR 1254, Method: STANDARD PLATE.

In the case of `c1ccc2c(c1)CCCC2`, the mutagenic call runs as follows: (Test System: AMES SALMONELLA TYPHIMURIUM, Strain/Indicator: TA98, Metabolic Activation: HAMSTER, LIVER, S-9, AROCLOR 1254, Method: STANDARD PLATE) “inactive; negative”; under setting [1], “inactive; negative”; under setting [2], “inactive; negative”; (Test System: AMES SALMONELLA TYPHIMURIUM, Strain/Indicator: TA100, Metabolic Activation: HAMSTER, LIVER, S-9, AROCLOR 1254, Method: STANDARD PLATE) “inactive; negative”; under setting [3], “inactive; negative”; under setting [4], “inactive; negative”. The mutagenic call (Test System: AMES SALMONELLA TYPHIMURIUM, Strain/Indicator: TA1535, Metabolic Activation: HAMSTER, LIVER, S-9, AROCLOR 1254, Method: STANDARD PLATE) was “inactive; negative”; the mutagenic call (Test System: AMES SALMONELLA TYPHIMURIUM, Strain/Indicator: TA1535, Metabolic Activation: NONE, Method: STANDARD PLATE) is “inactive; negative”; the mutagenic call (Test System: AMES SALMONELLA TYPHIMURIUM, Strain/Indicator: TA1535, Metabolic Activation: RAT, LIVER, S-9, AROCLOR 1254, Method: STANDARD PLATE) was “inactive; negative”; the mutagenic call (Test System: AMES SALMONELLA TYPHIMURIUM, Strain/Indicator: TA1537, Metabolic Activation: HAMSTER, LIVER, S-9, AROCLOR 1254, Method: STANDARD PLATE) is “inactive; negative”; the mutagenic call (Test System: AMES SALMONELLA TYPHIMURIUM, Strain/Indicator: TA1537, Metabolic Activation: NONE, Method: STANDARD PLATE) is “inactive; negative”; the mutagenic call (Test System: AMES SALMONELLA TYPHIMURIUM, Strain/Indicator: TA1537, Metabolic Activation: RAT, LIVER, S-9, AROCLOR 1254, Method: STANDARD PLATE) is “inactive; negative”. The mutagenic call was “inactive; negative” (Test System: AMES SALMONELLA TYPHIMURIUM, Strain/Indicator: TA1538, Metabolic Activation: HAMSTER, LIVER, S-9, AROCLOR 1254, Method: STANDARD PLATE); “inactive; negative” (Test System: AMES SALMONELLA TYPHIMURIUM, Strain/Indicator: TA1538, Metabolic Activation: NONE, Method: STANDARD PLATE); “inactive; negative” (Test System: AMES SALMONELLA TYPHIMURIUM, Strain/Indicator: TA1538, Metabolic Activation: RAT, LIVER, S-9, AROCLOR 1254, Method: STANDARD PLATE); “active; positive. reevaluation of results: equivocal” (Test System: MOUSE LYMPHOMA, Strain/Indicator: L5178Y (TK+/TK-), Metabolic Activation: RAT, LIVER, S-9, AROCLOR 1254, Method: SUSPENSION/PLATE).

For the compound `O=C1C=CC[C@H](/C=C/c2ccccc2)O1`, the mutagenic call reads like this: (End Point: IN VITRO CHROMOSOMAL ABERRATIONS, Test System: CHO CELLS, Metabolic Activation: NONE) “active; positive (structural changes)”; (End Point: IN VITRO CHROMOSOMAL ABERRATIONS, Test System: CHO CELLS, Metabolic Activation: RAT, LIVER, S-9, AROCLOR 1254) “active; positive (structural changes)”.

In the case of `ClC(Cl)C(Cl)Cl`, the mutagenic call (End Point: IN VITRO CHROMOSOMAL ABERRATIONS, Test System: CHINESE HAMSTER OVARY CELLS, Metabolic Activation: NONE) was “inactive; negative; precipitation occurred at 653 ug/ml”; the mutagenic call (End Point: IN VITRO CHROMOSOMAL ABERRATIONS, Test System: CHINESE HAMSTER OVARY CELLS, Metabolic Activation: RAT, LIVER, S-9, AROCLOR 1254) was “inactive; negative”; the mutagenic call under setting [5] was “active; positive”; the mutagenic call under setting [6] was “active; positive”; the mutagenic call under setting [1] was “active; positive”; the mutagenic call under setting [2] is “active; positive”. In addition, the mutagenic call is, setting by setting: under setting [3], “active; positive”; under setting [4], “active; positive”; (Test System: AMES SALMONELLA TYPHIMURIUM, Strain/Indicator: TA104, Metabolic Activation: NONE, Method: STANDARD PLATE) “inactive; negative”; (Test System: AMES SALMONELLA TYPHIMURIUM, Strain/Indicator: TA104, Metabolic Activation: RAT, LIVER, S-9, AROCLOR 1254, Method: STANDARD PLATE) “active; positive”; (Test System: AMES SALMONELLA TYPHIMURIUM, Strain/Indicator: TA1530, Metabolic Activation: NONE, Method: SPOT) “active; positive”; (Test System: AMES SALMONELLA TYPHIMURIUM, Strain/Indicator: TA1535, Metabolic Activation: NONE, Method: SPOT) “active; positive”.

Consider `CCN(CC)CCO`, for which the mutagenic call is, setting by setting: (Test System: AMES SALMONELLA TYPHIMURIUM, Strain/Indicator: TA98, Metabolic Activation: HAMSTER, LIVER, S-9, AROCLOR 1254 (10%), Method: PREINCUBATION) “inactive; negative”; (Test System: AMES SALMONELLA TYPHIMURIUM, Strain/Indicator: TA98, Metabolic Activation: NONE, Method: PREINCUBATION) “inactive; negative”; (Test System: AMES SALMONELLA TYPHIMURIUM, Strain/Indicator: TA98, Metabolic Activation: RAT, LIVER, S-9, AROCLOR 1254 (10%), Method: PREINCUBATION) “inactive; negative”; (Test System: AMES SALMONELLA TYPHIMURIUM, Strain/Indicator: TA100, Metabolic Activation: HAMSTER, LIVER, S-9, AROCLOR 1254 (10%), Method: PREINCUBATION) “inactive; negative”; (Test System: AMES SALMONELLA TYPHIMURIUM, Strain/Indicator: TA100, Metabolic Activation: NONE, Method: PREINCUBATION) “inactive; negative”; (Test System: AMES SALMONELLA TYPHIMURIUM, Strain/Indicator: TA100, Metabolic Activation: RAT, LIVER, S-9, AROCLOR 1254 (10%), Method: PREINCUBATION) “inactive; negative”. Further, the mutagenic call reads like this: (Test System: AMES SALMONELLA TYPHIMURIUM, Strain/Indicator: TA1535, Metabolic Activation: HAMSTER, LIVER, S-9, AROCLOR 1254 (10%), Method: PREINCUBATION) “inactive; negative”; (Test System: AMES SALMONELLA TYPHIMURIUM, Strain/Indicator: TA1535, Metabolic Activation: NONE, Method: PREINCUBATION) “inactive; negative”; (Test System: AMES SALMONELLA TYPHIMURIUM, Strain/Indicator: TA1535, Metabolic Activation: RAT, LIVER, S-9, AROCLOR 1254 (10%), Method: PREINCUBATION) “inactive; negative”; (Test System: AMES SALMONELLA TYPHIMURIUM, Strain/Indicator: TA1537, Metabolic Activation: HAMSTER, LIVER, S-9, AROCLOR 1254 (10%), Method: PREINCUBATION) “inactive; negative”; (Test System: AMES SALMONELLA TYPHIMURIUM, Strain/Indicator: TA1537, Metabolic Activation: NONE, Method: PREINCUBATION) “inactive; negative”; (Test System: AMES SALMONELLA TYPHIMURIUM, Strain/Indicator: TA1537, Metabolic Activation: RAT, LIVER, S-9, AROCLOR 1254 (10%), Method: PREINCUBATION) “inactive; negative”.

Regarding `Cc1ncc([N+](=O)[O-])n1C`, the mutagenic call was “active; positive” under setting [5]; “active; positive” under setting [6]; “active; positive” under setting [1]; “active; positive” under setting [2]; “active; positive” under setting [3]; “active; positive” under setting [4]. Also, the mutagenic call by setting is: (Test System: AMES SALMONELLA TYPHIMURIUM, Strain/Indicator: TA102, Metabolic Activation: NONE, Method: STANDARD PLATE) “active; positive”; (Test System: AMES SALMONELLA TYPHIMURIUM, Strain/Indicator: TA102, Metabolic Activation: RAT, LIVER, S-9, AROCLOR 1254, Method: STANDARD PLATE) “active; positive”.

Source of the values: PubChem BioAssay AID1259407 (Chemical Carcinogenesis Research Information System (CCRIS), 2018).
